# In patent US10597388B2, “Pyridazinone herbicides” (FMC CORPORATION, priority 2014, dated 2020):
# How the values were obtained:
# Format in all cases: in vivo
# [1] = test system: blackgrass (Alopecurus myosuroides); assay: Test A greenhouse herbicide test, postemergence
# Outline: (§1)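 Pot-grown plants (loam soil/sand blend), 2–10 cm tall at the one- to two-leaf stage, received postemergence sprays of formulated test chemical. After about 10 d in the greenhouse, injury was rated visually against untreated controls on a 0 (no effect) to 100 (complete control) scale.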
# [2] = test system: galium (catchweed bedstraw, Galium aparine); assay: Test A greenhouse herbicide test, postemergence
# Outline: as §1
# [3] = test system: barnyardgrass (Echinochloa crus-galli); assay: Test C greenhouse herbicide test, pre- and postemergence
# Outline: (§2)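 Pre- and postemergence greenhouse screen; values are visual control ratings, 0 meaning no effect and 100 complete kill, assigned relative to untreated plants after 13 to 15 d.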
# [4] = test system: crabgrass, large (large crabgrass, Digitaria sanguinalis); assay: as above
# Outline: as §2
# [5] = test system: foxtail, giant (giant foxtail, Setaria faberii); assay: as above
# Outline: as §2
# [6] = test system: galium (catchweed bedstraw, Galium aparine); assay: as above
# Outline: as §2
# [7] = test system: johnsongrass (Sorghum halepense); assay: as above
# Outline: as §2
# [8] = test system: lambsquarters (Chenopodium album); assay: as above
# Outline: as §2
# [9] = test system: morningglory (Ipomoea coccinea); assay: as above
# Outline: as §2
# [10] = test system: oilseed rape (Brassica napus); assay: as above
# Outline: as §2
# [11] = test system: ragweed (common ragweed, Ambrosia elatior); assay: as above
# Outline: as §2
# [12] = test system: ryegrass, Italian (Italian ryegrass, Lolium multiflorum); assay: as above
# Outline: as §2
# [13] = test system: wheat (winter wheat, Triticum aestivum); assay: as above
# Outline: as §2
# [14] = 125 g ai/ha, 0 to 100 scale where 0 is no effect and 100 is complete control
# [15] = 500 g ai/ha, visual rating after approx. 10 d, 0 to 100 scale (0 no effect, 100 complete control)
# [16] = Postemergence, 125 g ai/ha, scale 0 to 100, 0 is no effect, 100 is complete control
# [17] = Postemergence, 250 g ai/ha, scale 0 to 100, 0 no effect, 100 complete control, 13 to 15 d
# [18] = Preemergence, 31 g ai/ha, scale 0 to 100, 0 is no effect, 100 is complete control
# [19] = Preemergence, 62 g ai/ha, scale 0 to 100, 0 is no effect, 100 is complete control
# [20] = Preemergence, 125 g ai/ha, scale 0 to 100, 0 is no effect, 100 is complete control
# [21] = Preemergence, 250 g ai/ha, scale 0 to 100, 0 no effect, 100 complete control
# [22] = postemergence, 62 g ai/ha, scale 0 to 100, 0 no effect, 100 complete control
# [23] = Postemergence, 31 g ai/ha, scale 0 to 100 (0 no effect, 100 complete control)
# [24] = Postemergence, 62 g ai/ha, 0 to 100 scale (0 no effect, 100 complete control)
smiles,measurement,setting,value
COC(=O)Oc1cnn(C)c(=O)c1-c1c(C)sc2ccccc12 [Compound 97],"Plant response rating, Blackgrass",[1]; [14],90
same,Blackgrass plant response rating,"[1]; 500 g ai/ha, 0 to 100 scale, 0 is no effect, 100 is complete control",90
same,"Plant response rating, Galium",[2]; [14],100
same,"Plant response rating, Galium",[2]; [15],100
same,Barnyardgrass plant response rating,"[3]; Postemergence, 31 g ai/ha, 0 to 100 scale (0 no effect, 100 complete control)",0
same,"Plant response rating, Barnyardgrass",[3]; [16],15
same,"Plant response rating, Barnyardgrass",[3]; [17],35
same,"Plant response rating, Barnyardgrass",[3]; [18],0
same,"Plant response rating, Barnyardgrass",[3]; [19],0
same,"Plant response rating, Barnyardgrass",[3]; [20],0
same,Barnyardgrass plant response rating,[3]; [21],35
same,Barnyardgrass plant response rating,[3]; [22],5
same,"Plant response rating, Crabgrass, Large",[4]; [16],10
same,"Plant response rating, Crabgrass, Large",[4]; [17],25
same,"Plant response rating, Crabgrass, Large",[4]; [18],0
same,"Plant response rating, Crabgrass, Large",[4]; [19],0
same,"Plant response rating, Crabgrass, Large",[4]; [20],0
same,"Crabgrass, Large plant response rating",[4]; [21],60
same,"Crabgrass, Large plant response rating",[4]; [22],5
same,"Plant response rating, Foxtail, Giant",[5]; [16],5
same,"Plant response rating, Foxtail, Giant",[5]; [17],5
same,"Plant response rating, Foxtail, Giant",[5]; [18],0
same,"Plant response rating, Foxtail, Giant",[5]; [19],5
same,"Plant response rating, Foxtail, Giant",[5]; [20],5
same,"Foxtail, Giant plant response rating",[5]; [21],55
same,"Foxtail, Giant plant response rating",[5]; [22],5
same,"Plant response rating, Galium",[6]; [16],85
same,"Plant response rating, Galium",[6]; [17],90
same,"Plant response rating, Galium",[6]; [18],0
same,"Plant response rating, Galium",[6]; [19],0
same,"Plant response rating, Galium",[6]; [20],0
same,Galium plant response rating,[6]; [21],90
same,Galium plant response rating,[6]; [22],80
same,"Plant response rating, Johnsongrass",[7]; [16],0
same,"Plant response rating, Johnsongrass",[7]; [17],5
same,"Plant response rating, Johnsongrass",[7]; [18],0
same,"Plant response rating, Johnsongrass",[7]; [19],0
same,"Plant response rating, Johnsongrass",[7]; [20],0
same,Johnsongrass plant response rating,[7]; [21],0
same,Johnsongrass plant response rating,[7]; [22],0
same,"Plant response rating, Lambsquarters",[8]; [16],50
same,"Plant response rating, Lambsquarters",[8]; [17],60
same,"Plant response rating, Lambsquarters",[8]; [18],0
same,"Plant response rating, Lambsquarters",[8]; [19],0
same,"Plant response rating, Lambsquarters",[8]; [20],20
same,Lambsquarters plant response rating,[8]; [21],25
same,Lambsquarters plant response rating,[8]; [22],20
same,"Plant response rating, Morningglory",[9]; [16],30
same,"Plant response rating, Morningglory",[9]; [17],30
same,"Plant response rating, Morningglory",[9]; [18],25
same,"Plant response rating, Morningglory",[9]; [19],30
same,"Plant response rating, Morningglory",[9]; [20],20
same,Morningglory plant response rating,[9]; [21],30
same,Morningglory plant response rating,[9]; [22],40
same,"Plant response rating, Oilseed Rape",[10]; [16],0
same,"Plant response rating, Oilseed Rape",[10]; [17],35
same,"Plant response rating, Oilseed Rape",[10]; [18],0
same,"Plant response rating, Oilseed Rape",[10]; [19],0
same,"Plant response rating, Oilseed Rape",[10]; [20],0
same,Oilseed Rape plant response rating,[10]; [21],0
same,Oilseed Rape plant response rating,[10]; [22],0
same,"Plant response rating, Ragweed",[11]; [16],25
same,"Plant response rating, Ragweed",[11]; [17],35
same,"Plant response rating, Ragweed",[11]; [18],0
same,"Plant response rating, Ragweed",[11]; [19],0
same,"Plant response rating, Ragweed",[11]; [20],0
same,Ragweed plant response rating,[11]; [21],10
same,Ragweed plant response rating,[11]; [22],10
same,"Plant response rating, Ryegrass, Italian",[12]; [16],50
same,"Plant response rating, Ryegrass, Italian",[12]; [17],55
same,"Plant response rating, Ryegrass, Italian",[12]; [18],5
same,"Plant response rating, Ryegrass, Italian",[12]; [19],5
same,"Plant response rating, Ryegrass, Italian",[12]; [20],30
same,"Ryegrass, Italian plant response rating",[12]; [21],30
same,"Ryegrass, Italian plant response rating",[12]; [22],30
same,"Plant response rating, Wheat",[13]; [16],0
same,"Plant response rating, Wheat",[13]; [17],0
same,"Plant response rating, Wheat",[13]; [18],0
same,"Plant response rating, Wheat",[13]; [19],0
same,"Plant response rating, Wheat",[13]; [20],0
same,Wheat plant response rating,[13]; [21],0
same,Wheat plant response rating,[13]; [22],0
Cc1nn(C)c(=O)c(-c2cccc3ccc(Br)cc23)c1O [Compound 126],"Plant response rating, Blackgrass",[1]; [14],60
same,"Plant response rating, Blackgrass",[1]; [15],70
same,"Plant response rating, Galium",[2]; [14],100
same,"Plant response rating, Galium",[2]; [15],100
same,"Plant response rating, Barnyardgrass",[3]; [23],25
same,Barnyardgrass plant response rating,[3]; [24],30
same,"Plant response rating, Barnyardgrass",[3]; [16],35
same,"Plant response rating, Barnyardgrass",[3]; [17],50
same,"Plant response rating, Crabgrass, Large",[4]; [23],10
same,"Crabgrass, Large plant response rating",[4]; [24],20
same,"Plant response rating, Crabgrass, Large",[4]; [16],30
same,"Plant response rating, Crabgrass, Large",[4]; [17],30
same,"Plant response rating, Foxtail, Giant",[5]; [23],5
same,"Foxtail, Giant plant response rating",[5]; [24],15
same,"Plant response rating, Foxtail, Giant",[5]; [16],15
same,"Plant response rating, Foxtail, Giant",[5]; [17],25
same,"Plant response rating, Galium",[6]; [23],90
same,Galium plant response rating,[6]; [24],95
same,"Plant response rating, Galium",[6]; [16],98
same,"Plant response rating, Galium",[6]; [17],98
same,"Plant response rating, Johnsongrass",[7]; [23],10
same,Johnsongrass plant response rating,[7]; [24],10
same,"Plant response rating, Johnsongrass",[7]; [16],15
same,"Plant response rating, Johnsongrass",[7]; [17],25
same,"Plant response rating, Lambsquarters",[8]; [23],80
same,Lambsquarters plant response rating,[8]; [24],95
same,"Plant response rating, Lambsquarters",[8]; [16],95
same,"Plant response rating, Lambsquarters",[8]; [17],95
same,"Plant response rating, Morningglory",[9]; [23],95
same,Morningglory plant response rating,[9]; [24],95
same,"Plant response rating, Morningglory",[9]; [16],98
same,"Plant response rating, Morningglory",[9]; [17],98
same,"Plant response rating, Oilseed Rape",[10]; [23],60
same,Oilseed Rape plant response rating,[10]; [24],80
same,"Plant response rating, Oilseed Rape",[10]; [16],60
same,"Plant response rating, Oilseed Rape",[10]; [17],85
same,"Plant response rating, Ragweed",[11]; [23],85
same,Ragweed plant response rating,[11]; [24],90
same,"Plant response rating, Ragweed",[11]; [16],95
same,"Plant response rating, Ragweed",[11]; [17],95
same,"Plant response rating, Ryegrass, Italian",[12]; [23],80
same,"Ryegrass, Italian plant response rating",[12]; [24],85
same,"Plant response rating, Ryegrass, Italian",[12]; [16],90
same,"Plant response rating, Ryegrass, Italian",[12]; [17],90
same,"Plant response rating, Wheat",[13]; [23],0
same,Wheat plant response rating,[13]; [24],0
same,"Plant response rating, Wheat",[13]; [16],0
same,"Plant response rating, Wheat",[13]; [17],5
